Experimental data reported in patent US20050245550A1, “Fungicidal mixtures based on the dithianon” (priority 2002, published 2005).

Tests used:
Botrytis cinerea = test: Activity against gray mold on bell pepper leaves caused by Botrytis cinerea; format: in vivo; settings: individual active compound
Method: (§1) The active compounds were prepared separately or jointly as a stock solution comprising 0.25% by weight of active compound in acetone or DMSO. 1% by weight of the emulsifier Uniperol® EL (wetting agent having emulsifying and dispersing action based on ethoxylated alkylphenols) was added to this solution, and the mixture was diluted with water to the desired concentration.
Bell pepper seedlings of the cultivar “Neusiedler Ideal Elite” were, after 4-5 leaves were well developed, sprayed to runoff point with an aqueous suspension having the concentration of active compound stated below. The next day, the treated plants were inoculated with a spore suspension of Botrytis cinerea which contained 1.7×10^6 spores/ml in a 2% strength aqueous biomalt solution. The test plants were then placed in a climatized chamber at 22-24° C. and high atmospheric humidity. After 5 days, the extent of the fungal infection on the leaves could be determined visually in %.
(§2) Evaluation was carried out by determining the infected leaf areas in percent. These percentages are converted into efficacies.
(§3) The efficacy (E) is calculated as follows using Abbot's formula: E=(1−α/β)·100 α corresponds to the fungal infection of the treated plants in % and • β corresponds to the fungal infection of the untreated (control) plants in %
(§4) An efficacy of 0 means that the infection level of the treated plants corresponds to that of the untreated control plants; an efficacy of 100 means that the treated plants were not infected.
(§5) The expected efficacies of the active compound mixtures are determined using Colby's formula [S. R. Colby, Weeds 15, 20-22 (1967)] and compared with the observed efficacies.
(§6) Colby's formula: E=x+y−x·y/100 • E expected efficacy, expressed in % of the untreated control, when using the mixture of the active compounds A and B at the concentrations a and b • x efficacy, expressed in % of the untreated control, when using active compound A at a concentration of a
(§7) y efficacy, expressed in % of the untreated control, when using active compound B at a concentration of b

Alternaria solani = test: Activity against early blight of tomato caused by Alternaria solani; format: in vivo; settings: individual active compound, 5 days after infection
Method: as §1, §2, §3, §4, §5, §6, §7
Leaves of potted plants of the cultivar “Groβe Fleischtomate St. Pierre” were sprayed to runoff point with an aqueous suspension having the concentration of active compounds stated below. The next day, the leaves were infected with an aqueous zoospore suspension of Alternaria solani in 2% biomalt solution having a density of 0.17×10^6 spores/ml. The plants were then placed in a water-vapor-saturated chamber at temperatures of between 20 and 22° C. After 5 days, the infection on the leaves of the untreated, but infected control plants had developed to such an extent that the infection could be determined visually in %.

[1] = concentration in the spray liquor 0.25, 5 days after inoculation
[2] = concentration in the spray liquor 1, 5 days after inoculation
[3] = concentration in the spray liquor 4, 5 days after inoculation

| Compound | Efficacy in % of the untreated control (Botrytis cinerea; [1]) [%] | Efficacy in % of the untreated control (Botrytis cinerea; [2]) [%] | Efficacy in % of the untreated control (Botrytis cinerea; [3]) [%] | Efficacy in % of the untreated control (Alternaria solani; 0.25 ppm in the spray liquor) [%] | Efficacy in % of the untreated control (Alternaria solani; 1 ppm in the spray liquor) [%] | Efficacy in % of the untreated control (Botrytis cinerea; concentration in the spray liquor 16, 5 days after inoculation) [%] | Efficacy in % of the untreated control (Alternaria solani; 4 ppm in the spray liquor) [%] |
| --- | --- | --- | --- | --- | --- | --- | --- |
| CC(C)(C)C(O)(CCc1ccc(Cl)cc1)Cn1cncn1 (centres unmarked) [II-4, tebuconazole] | 0 | 0 | 0 | 0 | 63 |  |  |
| N#Cc1sc2c(=O)c3ccccc3c(=O)c=2sc1C#N [I, dithianon] | 0 | 0 | 0 | 0 | 0 | 0 | 0 |
| Fc1ccc(C2(Cn3cncn3)OC2c2ccccc2Cl)cc1 (centres unmarked) [II-2, epoxiconazole] | 9 | 9 |  | 63 | 75 |  |  |
| CC1(C)CCC(Cc2ccc(Cl)cc2)C1(O)Cn1cncn1 (centres unmarked) [II-1, metconazole] | 0 | 49 |  | 2 | 63 |  |  |
